Data from patent US10759751B2, “Substituted spirocyclohexanes as muscarinic M1 receptor and/or M4 receptor agonists” (Heptares Therapeutics Limited, priority 2016, dated 2020).

Experiments:
Format in all cases: cell-based
[1] = target: T1, human muscarinic M1 receptor (Homo sapiens, UniProt P11229); assay: Alphascreen Surefire phospho-ERK1/2 functional assay, M1; conditions: for EC50: phospho-ERK1/2, read-out: pEC50 M1 (converted); for Emax: CHO, read-out: M1 % Emax cf. ACh, CHO cells stably expressing human M1
T1 sequence (P11229 1-460): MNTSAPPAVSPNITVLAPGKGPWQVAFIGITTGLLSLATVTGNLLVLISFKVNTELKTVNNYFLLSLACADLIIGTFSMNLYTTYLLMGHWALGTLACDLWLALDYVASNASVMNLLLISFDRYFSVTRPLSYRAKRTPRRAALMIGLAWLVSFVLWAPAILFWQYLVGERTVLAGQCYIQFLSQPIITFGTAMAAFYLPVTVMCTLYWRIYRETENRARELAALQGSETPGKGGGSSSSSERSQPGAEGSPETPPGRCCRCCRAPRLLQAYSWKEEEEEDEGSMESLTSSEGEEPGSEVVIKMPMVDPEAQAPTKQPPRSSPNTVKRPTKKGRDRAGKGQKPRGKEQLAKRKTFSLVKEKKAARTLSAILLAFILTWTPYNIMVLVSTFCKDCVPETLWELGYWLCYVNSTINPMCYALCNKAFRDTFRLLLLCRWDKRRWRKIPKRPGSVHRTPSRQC
Procedure, shortened: (§1)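 Read-out: AlphaScreen SureFire signal for phospho-ERK1/2 in lysates of stably transfected CHO cells, read after 2 h in the dark. Cells were serum-starved overnight and given agonist for 5 min at 37 °C. Values are pEC50 and Emax.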

[2] = target: T2, human muscarinic M2 receptor (Homo sapiens, UniProt P08172); assay: Alphascreen Surefire phospho-ERK1/2 functional assay, M2; conditions: for EC50: CHO cells stably expressing human M2, phospho-ERK1/2, read-out: pEC50 M2 (converted); for Emax: CHO, read-out: M2 % Emax cf. ACh
T2 sequence (P08172 1-466): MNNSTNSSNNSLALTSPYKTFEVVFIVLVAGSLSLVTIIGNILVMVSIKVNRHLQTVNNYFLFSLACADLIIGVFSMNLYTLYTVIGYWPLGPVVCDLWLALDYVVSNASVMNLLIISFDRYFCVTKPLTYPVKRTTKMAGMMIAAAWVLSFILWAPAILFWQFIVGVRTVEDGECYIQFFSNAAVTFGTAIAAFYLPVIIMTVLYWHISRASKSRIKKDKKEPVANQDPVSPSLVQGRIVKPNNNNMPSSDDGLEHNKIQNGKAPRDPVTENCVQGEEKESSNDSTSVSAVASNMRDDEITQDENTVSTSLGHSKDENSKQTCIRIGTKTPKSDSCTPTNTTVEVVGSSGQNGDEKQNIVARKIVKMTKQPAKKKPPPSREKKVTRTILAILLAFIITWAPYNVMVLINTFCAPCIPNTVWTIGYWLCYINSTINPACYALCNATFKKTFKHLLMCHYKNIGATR
Procedure, shortened: as §1

[3] = target: T3, human muscarinic M3 receptor (Homo sapiens, UniProt P20309); assay: Alphascreen Surefire phospho-ERK1/2 functional assay, M3; conditions: for EC50: CHO cells stably expressing human M3, phospho-ERK1/2, read-out: pEC50 M3 (converted); for Emax: CHO, read-out: M3 % Emax cf. ACh
T3 construct: expressed in transfected cells
T3 sequence (P20309 whole entry): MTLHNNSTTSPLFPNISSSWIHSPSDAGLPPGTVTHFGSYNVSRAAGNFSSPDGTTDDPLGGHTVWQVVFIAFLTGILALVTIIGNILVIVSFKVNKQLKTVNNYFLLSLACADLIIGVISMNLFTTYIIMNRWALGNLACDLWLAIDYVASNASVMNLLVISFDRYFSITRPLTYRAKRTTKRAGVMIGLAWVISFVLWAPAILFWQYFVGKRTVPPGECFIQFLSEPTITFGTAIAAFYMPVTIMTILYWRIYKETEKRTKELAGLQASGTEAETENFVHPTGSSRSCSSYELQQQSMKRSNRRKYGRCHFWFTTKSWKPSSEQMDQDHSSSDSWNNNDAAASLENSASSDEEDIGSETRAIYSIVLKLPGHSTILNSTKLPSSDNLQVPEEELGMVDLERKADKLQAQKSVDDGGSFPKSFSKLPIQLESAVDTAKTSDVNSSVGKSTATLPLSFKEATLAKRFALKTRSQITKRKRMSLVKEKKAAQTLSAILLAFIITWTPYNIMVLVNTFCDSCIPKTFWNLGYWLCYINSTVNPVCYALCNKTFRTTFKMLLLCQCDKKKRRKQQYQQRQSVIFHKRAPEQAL
Procedure, shortened: as §1

[4] = target: T4, human muscarinic M4 receptor (Homo sapiens, UniProt P08173); assay: Alphascreen Surefire phospho-ERK1/2 functional assay, M4; conditions: for EC50: phospho-ERK1/2, read-out: pEC50 M4 (converted); for Emax: CHO, read-out: M4 % Emax cf. ACh, CHO cells stably expressing human M4
T4 construct: expressed in transfected cells
T4 sequence (P08173 1-479): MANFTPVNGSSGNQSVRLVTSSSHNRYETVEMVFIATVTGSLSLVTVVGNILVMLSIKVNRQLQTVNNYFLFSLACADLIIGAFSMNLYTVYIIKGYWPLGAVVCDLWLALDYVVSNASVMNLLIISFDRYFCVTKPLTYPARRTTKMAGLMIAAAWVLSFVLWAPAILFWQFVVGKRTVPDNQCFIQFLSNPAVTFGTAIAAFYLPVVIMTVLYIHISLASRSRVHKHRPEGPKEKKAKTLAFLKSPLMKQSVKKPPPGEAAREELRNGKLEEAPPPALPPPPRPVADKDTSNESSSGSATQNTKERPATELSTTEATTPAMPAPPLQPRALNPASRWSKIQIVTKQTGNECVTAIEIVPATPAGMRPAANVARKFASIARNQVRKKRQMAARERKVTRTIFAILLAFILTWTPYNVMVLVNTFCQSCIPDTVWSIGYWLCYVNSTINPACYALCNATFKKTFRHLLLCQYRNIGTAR
Procedure, shortened: as §1

[5] = CHO cells stably expressing human M1
[6] = CHO cells stably expressing human M4

Structure (SMILES) | M1 % Emax cf. ACh ([1]; CHO cells stably expressing human M1, Emax relative to ACh) [%] | EC50 [1, 5] [nM] | EC50 [2] [nM] | Emax [2] [%] | EC50 [3] [nM] | Emax [3] [%] | M4 % Emax cf. ACh ([4]; CHO cells stably expressing human M4, Emax relative to ACh) [%] | EC50 [4, 6] [nM] | Emax ([1]; Emax relative to ACh) [%] | Emax ([4]; Emax relative to ACh) [%]
CCOC(=O)NCC1CCN(C2CCC3(CC2)C(=O)Nc2ccccc23)CC1 (single isomer, unassigned) [7-2 isomer 1] | 122 | 75.9 | > 20000 | 37 | > 20000 | 3 | 32 | 170 | – | –
CCOC(=O)N1CCCN(C2CCC3(CC2)C(=O)Nc2ccc(C)cc23)CC1 (single isomer, unassigned) [4-7 isomer 1] | – | 44.7 | > 20000 | 16 | > 20000 | 20 | – | 5370 | 115 | 100
CCc1noc(C2CC3(CCN(C4CCC5(CC4)C(=O)Nc4ccccc45)C3)C2)n1 (single isomer, unassigned) [26-3 Isomer 1] | – | 93.3 | > 20000 | 11 | > 20000 | 19 | – | 28.8 | 31 | 72
C#CCOC(=O)N1CCCN(C2CCC(C#N)(c3ccc(OC)cn3)CC2)CC1 (single isomer, unassigned) [3-31 Isomer 1] | – | 19.5 | > 20000 | 8 | > 20000 | 0 | – | 2570 | 91 | 52
CCOC(=O)N1CCCN(C2CCC(C#N)(c3ccc(OC)cn3)CC2)CC1 (single isomer, unassigned) [3-19 Isomer 2] | – | 30.2 | > 20000 | 5 | > 20000 | 6 | – | 1740 | 101 | 39
CCOC(=O)N1CC2CN(C3CCC(C#N)(c4ccccc4)CC3)CCC21 (single isomer, unassigned) [17-1 Isomer 2] | – | 97.7 | > 20000 | 9 | > 20000 | 9 | – | 251 | 111 | 61
CCOC(=O)N[C@H]1CCN(C2CCC3(CC2)C(=O)Nc2ccccc23)C1 (single isomer, unassigned) [2-1 isomer 1] | – | 74.1 | > 20000 | 2 | > 20000 | 4 | – | > 20000 | 74 | 10
CCOC(=O)N1CCCN(C2CCC(C#N)(c3ccccn3)CC2)CC1 (mixture of isomers) [3-11 mixture of isomers] | – | 72.4 | > 20000 | 43 | > 20000 | 15 | – | 389 | 97 | 99
O=C1Nc2ccccc2C12CCC(N[C@@H]1CC[C@H](c3nc(C(F)(F)F)no3)C1)CC2 (single isomer, unassigned) [24-1 Isomer 1] | – | 219 | > 20000 | 16 | > 20000 | 23 | – | 105 | 89 | 62
CC#CCOC(=O)N1CCCN(C2CCC(C#N)(c3ccncc3)CC2)CC1 (single isomer, unassigned) [3-30 Isomer 1] | – | 295 | > 20000 | 6 | > 20000 | 0 | – | 229 | 104 | 72
CCOC(=O)N[C@H]1CCN(C2CCC3(CC2)C(=O)Nc2ccc(OC)cc23)C1 (single isomer, unassigned) [2-10 isomer 1] | – | 7.94 | > 20000 | 27 | > 20000 | 4 | – | > 20000 | 64 | 39
